What follows are compounds tested on GM3 (assay: GM3 Elisa assay). Settings: 48 h, Table 2; B16-FO cells, 2 days incubation; read-out: IC50_uM_Mean.
Assay type: cell-based
Method: B16-FO cells from ATCC (American Tissue Culture Collection) were grown in DMEM media (ATCC) with 10% Fetal Bovine Serum (Hyclone) and Pen/Step/Glutamine (Biowhittaker). 4000 cells per well were plated on collagen coated plates (BD) and allowed to attach for 6 hours in an incubator (37 degrees, 5% CO2). After 6 hours the compounds and controls were added to the wells, the plates mixed and returned to the incubator for 2 days. Day of assay the cells were fixed for 20 minutes with 1% formaldehyde and then washed with Tris Buffered Saline (TBS) 3 times, 150 μl of TBS was left in the wells and 50 μl of goat serum (Invitrogen) was added, the plates mixed and incubated for 1 hour at room temperature. The plates were flicked and the cells incubated with the monoclonal Antibody to GM3 (NeuAc) (Cosmo) for 45 minutes as room temperature. The plates were then washed 3 times with TBS, leaving 150 μl of TBS in the wells and Peroxidase AffinPure F (ab′) 2 frag Gt Anti-mouse IgM, μ Chain Specific (Jackson Immno Research) was added in 50 μl, the plates mixed and incubated for 45 minutes at room temperature. The plates were washed 3 times with TBS, flicked and blotted and 100 μl of Quantablu (Pierce) was added to the wells and incubated for 1 hour then read on a Fluorometer at Ex 325 and Em 420. The data was then analyzed using standard programs.
Work on Cc1ccc(C(=O)CCC(=O)N[C@H](CC2CCCC2)[C@H](O)c2ccc3c(c2)CCCC3)cc1 [Compound 264] yielded an IC50 of no more than 0.1 µM. COC(=O)CO[C@H](c1ccc2c(c1)OCO2)[C@@H](CN1CCCC1)NC(=O)CCOc1ccc(OC)cc1 [Compound 275] showed an IC50 of no more than 0.1 µM.

Same assay, conditions: 48 h, Table 3; B16-FO cells, 2 days incubation; read-out: IC50_uM_Mean
In the case of COCCOc1ccc(C(O)[C@@H](CN2CCCC2)NC(=O)CCCCC(=O)c2ccc(OC)cc2)cc1 (stereo partly shown) [Compound 417], the IC50 is reported as no more than 0.1 µM. With COc1ccc(C(=O)CCCCC(=O)NC(CN2CCCC2)[C@H](O)c2ccc(OCCC3CCCCC3)cc2)cc1 (stereo partly shown) [Compound 419] the IC50 was no more than 0.1 µM. With COc1ccc(CCCCN(C(=O)CCCCC(=O)c2ccc(OC)cc2)[C@H](CN2CCCC2)[C@H](O)c2ccc(O)cc2)cc1 [Compound 429] the IC50 was 3 to 10 µM. With COc1ccc(C(=O)CCCCCC(=O)N[C@H](CNC(C)C)[C@@H](O)c2ccc3c(c2)OCCO3)cc1 [Compound 465] the IC50 was 0.1 to 1 µM. Compound CCCNC[C@@H](NC(=O)CCCCCC(=O)c1ccc(OC)cc1)[C@H](O)c1ccc2c(c1)OCCO2 [Compound 467] has an IC50 of 0.1 to 1 µM. In the case of COc1ccc(C(=O)CCCCCC(=O)N[C@H](CN2CC[C@@H](O)C2)[C@@H](O)c2ccc3c(c2)OCCO3)cc1 [Compound 518], the IC50 is reported as 0.1 to 1 µM. COc1ccc(C(=O)CCCCCC(=O)N[C@H](CN2CCC(C)(C)C2)[C@@H](O)c2ccc3c(c2)OCCO3)cc1 [Compound 520] was tested, and the IC50 was 1 to 3 µM. For CCCCCCCC(=O)N[C@H](CN1CCC(C)(C)C1)[C@@H](O)c1ccc2c(c1)OCCO2 [Compound 521], the IC50 was 3 to 10 µM. COc1ccc(C(=O)CCCCCC(=O)N[C@H](CN2CCC[C@@H]2C)[C@H](O)c2ccc3c(c2)OCCO3)cc1 [Compound 525] was tested, and the IC50 was no more than 0.1 µM. COc1ccc(OCCC(=O)N[C@H](CN2CCC[C@@H]2C)[C@H](O)c2ccc3c(c2)OCCO3)cc1 [Compound 526] was tested, and the IC50 was 0.1 to 1 µM. CCCCCCCC(=O)N[C@H](CN1CCC[C@@H]1C)[C@H](O)c1ccc2c(c1)OCCO2 [Compound 527] gave an IC50 of 1 to 3 µM. In the case of COc1ccc(OCCC(=O)N[C@H](CN2CCC[C@H]2C)[C@H](O)c2ccc3c(c2)OCCO3)cc1 [Compound 528], the IC50 is reported as 1 to 3 µM. For COc1ccc(C(=O)CCCCCC(=O)N[C@H](CN2CCC[C@H]2C)[C@H](O)c2ccc3c(c2)OCCO3)cc1 [Compound 529], the IC50 was no more than 0.1 µM. COC[C@@H]1CCCN1CC(NC(=O)CCCCCC(=O)c1ccc(OC)cc1)[C@@H](O)c1ccc2c(c1)OCCO2 (stereo partly shown) [Compound 533] showed an IC50 of 0.1 to 1 µM. COC[C@H]1CCCN1C[C@@H](NC(=O)CCOc1ccc(OC)cc1)[C@H](O)c1ccc2c(c1)OCCO2 [Compound 538] showed an IC50 of 3 to 10 µM. With COc1ccc(C(=O)CCCCCC(=O)NC(CN2[C@H](C)CC[C@H]2C)[C@H](O)c2ccc3c(c2)OCCO3)cc1 (stereo partly shown) [Compound 548] the IC50 was 1 to 3 µM. With CCCCCCCC(=O)NC(CN1[C@H](C)CC[C@H]1C)[C@H](O)c1ccc2c(c1)OCCO2 (stereo partly shown) [Compound 549] the IC50 was 3 to 10 µM. With COc1ccc(OCCC(=O)NC(CN2[C@H](C)CC[C@H]2C)[C@H](O)c2ccc3c(c2)OCCO3)cc1 (stereo partly shown) [Compound 550] the IC50 was 3 to 10 µM. In the case of O=C(CCCCS(=O)(=O)C12CC3CCCC(C1)C(C3)C2)N[C@H](CN1CCCC1)[C@@H](O)c1ccc2c(c1)OCCO2 (stereo partly shown) [Compound 560], the IC50 is reported as 0.1 to 1 µM. With Cc1nccn1C[C@@H](NC(=O)CCCCCC(=O)c1ccc(F)cc1)[C@H](O)c1ccc2c(c1)OCCO2 [Compound 569] the IC50 was 3 to 10 µM. Work on O=C(CCCCCC1CCOCC1)N[C@H](CN1CC[C@@H](F)C1)[C@H](O)c1cccc(OCc2ccccc2)c1 [Compound 574] yielded an IC50 of 0.1 to 1 µM. CCCCOc1ccc([C@@H](O)[C@@H](CN2CC[C@@H](F)C2)NC(=O)CCCCCCCOC)cc1 [Compound 584] showed an IC50 of 0.1 to 1 µM. COc1ccc(OCCC(=O)N[C@H](CN2C(C)CCCC2C)[C@@H](O)c2ccc3c(c2)OCCO3)cc1 (stereo partly shown) [Compound 598] gave an IC50 of 3 to 10 µM. For N#CCCCCCC(=O)C[C@H](CN1CCCC1)[C@H](O)c1ccc2c(c1)OCCO2 [Compound 632], the IC50 was 3 to 10 µM. O=C(CCCCOCC(F)(F)F)N[C@H](CN1CCCC1)[C@H](O)c1ccc(CCc2ccccc2)cc1 [Compound 647] showed an IC50 of 0.1 to 1 µM. Compound Cc1noc(CCCCC(=O)N[C@@H](CC2CCCC2)[C@H](O)c2ccc3c(c2)OCCO3)n1 [Compound 652] has an IC50 of 3 to 10 µM. CCCCOc1ccc([C@@H](O)[C@@H](CN2CC[C@@H](O)C2)NC(=O)CCCCCOCCF)cc1 [Compound 661] was tested, and the IC50 was 1 to 3 µM. COc1ccc([C@@H](O)[C@@H](CN2CCCC2)NC(=O)CCCCCC(C)=O)cc1 [Compound 664] was tested, and the IC50 was 1 to 3 µM. With COc1ccc(OCCC(=O)N[C@@H](CN2CCCC2)[C@@H](O)c2ccc3c(c2)OCCO3)cc1 [Compound 674] the IC50 was 3 to 10 µM. COc1ccc(OCCC(=O)N[C@@H](CN2CCCC2)[C@H](O)c2ccc3c(c2)OCCO3)cc1 [Compound 675] gave an IC50 of 3 to 10 µM. Work on COc1ccc(OCCC(=O)N[C@H](CN2CCCC2)[C@@H](O)c2ccc3c(c2)OCCO3)cc1 [Compound 676] yielded an IC50 of 3 to 10 µM. Compound CCCCCCCCCCCCCCCC(=O)N[C@H](CN(C)Cc1ccccc1)[C@@H](O)c1ccc2c(c1)OCCO2 [Compound 682] has an IC50 of 3 to 10 µM. COCOc1ccc(C(=O)CCCC(=O)N[C@H](CN2CC[C@H](O)C2)[C@H](O)c2ccc(OC(C)C)cc2)cc1 [Compound 737] showed an IC50 of 0.1 to 1 µM.

Same assay, conditions: 48 h; Table 1; B16-FO cells, 2 days incubation; read-out: IC50_uM_Mean
COc1ccc(OCCC(=O)N[C@H](CN2CCCC2)[C@H](O)c2ccc3c(c2)OCCO3)cc1 [Compound 61, N-((1R,2R)-1-(2,3-dihydrobenzo[β][1,4]dioxin-6-yl)-1-hydroxy-3-(pyrrolidin-1-yl)propan-2-yl)-3-(4-methoxyphenoxy)propanamide] gave an IC50 of no more than 0.1 µM.

Same assay, conditions: Table 1; B16-FO cells, 2 days incubation; read-out: IC50_uM_Mean
In the case of CC(=O)CCc1ccc(OCCC(=O)N[C@H](CN2CCCC2)[C@H](O)c2ccc3c(c2)OCCO3)cc1 [Compound 193, N-((1R,2R)-1-(2,3-dihydrobenzo[b][1,4]dioxin-6-yl)-1-hydroxy-3-(pyrrolidin-1-yl)propan-2-yl)-3-(4-(3-oxobutyl)phenoxy)propanamide(2R,3R)-2,3-dihydroxysuccinate], the IC50 is reported as 0.1 to 1 µM.

From patent publication US8729075B2, “Glucosylceramide synthase inhibition for the treatment of collapsing glomerulopathy and other glomerular disease” (Genzyme Corporation, priority 2008, dated 2014)
